Laboratory results reported in patent US20250129070A1, “BIFUNCTIONAL ANDROGEN RECEPTOR COMPOUNDS” (priority 2023, published 2025).
Like-named read-outs stand apart in the source and are kept apart here.

Tests used:
Type in all cases: cell-based
VCaP cells = assay: VCaP growth inhibition assay; conditions: 30 pM R1881, 9 days, CTG
How it was run: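 Growth read by CTG luminescence after 9-day exposure to compound (final 100 nM–10 fM, 1:5 steps) plus 30 pM R1881, in phenol red-free DMEM with 5% CSS. Cells pre-incubated 72 h before dosing; IC50 by nonlinear 4-parameter regression.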

AR / CBP ternary complex = assay: Ternary complex formation assay (sandwich ELISA, AR capture / CBP detection) in VCaP cell lysates; conditions: 1.5 hours treatment, sandwich ELISA (AR capture, CBP or p300 detection)
How it was run: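 Anti-AR (AR 441)-coated plates capture AR from lysates of VCaP cells grown ≥3 days at 50K/well in 5% charcoal-stripped FBS, dosed with bifunctional for 1.5 h and lysed 30 min at 4 °C. Co-captured CBP/p300 is probed with rabbit mAb and HRP anti-rabbit, then QuantaRed fluorescence (570/585) is read at 0, 5 and 15 min.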

HEK-293 cells = assay: HEK-293 growth inhibition assay; conditions: 3 days, CTG
How it was run: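 HEK-293 cells plated 24 hours before compound treatment, then exposed for 3 days at 37°C/5% CO2. Viability by CellTiter-Glo luminescence after 20 minutes at room temperature. IC50 from RLU versus concentration via 4-parameter logistic nonlinear regression.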

[1] = target: Histone H3.3/CBP-BD Interaction (Homo sapiens, UniProt Q92793); assay: NanoBRET cellular assay (Histone H3.3/CBP-BD Interaction Assay)
Sequence of Histone H3.3/CBP-BD Interaction (Q92793 1085-1192 limits assumed): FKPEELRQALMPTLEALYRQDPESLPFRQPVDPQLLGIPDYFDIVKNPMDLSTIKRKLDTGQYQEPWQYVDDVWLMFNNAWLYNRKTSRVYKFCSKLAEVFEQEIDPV

SMILES	IC50 (VCaP cells) [nM]	EC50 (AR / CBP ternary complex) [nM]	IC50 (HEK-293 cells) [nM]	IC50 [1] [nM]	IC50 ([1]; HEK293 cells transfected with Histone H3.3-HaloTag and CBP-BD-NanoLuc, 22 hours treatment, test compounds starting at 1 uM, SGC-CBP-30 starting at 10 uM, 10-dose with 3-fold dilution) [nM]
CNC(=O)N1CCc2c(c(N3CCCc4cc(-c5cnn(C)c5)c(C(F)F)cc43)nn2C2CCN(C(=O)CN3CCN(c4ncc(C(=O)NC5C(C)(C)C(Oc6ccc(C#N)c(Cl)c6)C5(C)C)cn4)CC3)CC2)C1 (centres unmarked) [Compound 109, 1-[1-[2-[4-[5-[[3-(3-chloro-4-cyano-phenoxy)-2,2,4,4-tetramethyl-cyclobutyl]carbamoyl]pyrimidin-2-yl]piperazin-1-yl]acetyl]-4-piperidyl]-3-[7-(difluoromethyl)-6-(1-methylpyrazol-4-yl)-3,4-dihydro-2H-quinolin-1-yl]-N-methyl-6,7-dihydro-4H-pyrazolo[4,3-c]pyridine-5-carboxamide]	≤ 0.1	< 1	> 10000	> 1000	–
CNC(=O)N1CCc2c(c(N3CCCc4cc(-c5cnn(C)c5)c(C(F)F)cc43)nn2C2CCN(C(=O)COCC3CCN(c4ncc(C(=O)NC5C(C)(C)C(Oc6ccc(C#N)c(Cl)c6)C5(C)C)cn4)CC3)CC2)C1 (centres unmarked) [Compound 107, 1-[1-[2-[[1-[5-[[3-(3-chloro-4-cyano-phenoxy)-2,2,4,4-tetramethyl-cyclobutyl]carbamoyl]pyrimidin-2-yl]-4-piperidyl]methoxy]acetyl]-4-piperidyl]-3-[7-(difluoromethyl)-6-(1-methylpyrazol-4-yl)-3,4-dihydro-2H-quinolin-1-yl]-N-methyl-6,7-dihydro-4H-pyrazolo[4,3-c] pyridine-5-carboxamide]	≤ 0.1	< 1	> 10000	–	–
CNC(=O)N1CCc2c(c(N3CCCc4cc(-c5cnn(C)c5)c(C(F)F)cc43)nn2C2CCN(CCOc3ncc(C(=O)NC4C(C)(C)C(Oc5ccc(C#N)c(Cl)c5)C4(C)C)cn3)CC2)C1 (centres unmarked) [Compound 87, 1-[1-[2-[5-[[3-(3-chloro-4-cyano-phenoxy)-2,2,4,4-tetramethyl-cyclobutyl]carbamoyl]pyrimidin-2-yl]oxyethyl]-4-piperidyl]-3-[7-(difluoromethyl)-6-(1-methylpyrazol-4-yl)-3,4-dihydro-2H-quinolin-1-yl]-N-methyl-6,7-dihydro-4H-pyrazolo[4,3-c]pyridine-5-carboxamide]	0.1 to 1	< 1	> 10000	–	–
CNC(=O)N1CCc2c(c(N3CCCc4cc(-c5cnn(C)c5)c(C(F)F)cc43)nn2C2CCOCC2)C1 [GNE-781, reference compound]	–	–	–	–	0.123
CC(=O)N1CCc2c(c(N3CCCc4cc(-c5cnn(C)c5)c(C(F)F)cc43)nn2C2CCN(C(=O)CN3CCN(c4ncc(C(=O)NC5C(C)(C)C(Oc6ccc(C#N)c(Cl)c6)C5(C)C)cn4)CC3)CC2)C1 (centres unmarked) [Compound 96, 2-[4-[2-[4-[5-acetyl-3-[7-(difluoromethyl)-6-(1-methylpyrazol-4-yl)-3,4-dihydro-2H-quinolin-1-yl]-6,7-dihydro-4H-pyrazolo[4,3-c]pyridin-1-yl]-1-piperidyl]-2-oxo-ethyl]piperazin-1-yl]-N-[3-(3-chloro-4-cyano-phenoxy)-2,2,4,4-tetramethyl-cyclobutyl]pyrimidine-5-carboxamide]	≤ 0.1	< 1	> 10000	–	–

Second part, led by results:

IC50 (VCaP cells) [nM]	EC50 (AR / CBP ternary complex) [nM]	SMILES	IC50 (HEK-293 cells) [nM]	IC50 [1] [nM]	IC50 ([1]; HEK293 cells transfected with Histone H3.3-HaloTag and CBP-BD-NanoLuc, 22 hours treatment, test compounds starting at 1 uM, SGC-CBP-30 starting at 10 uM, 10-dose with 3-fold dilution) [nM]
≤ 0.1	< 1	COc1cc(OC2C(C)(C)C(NC(=O)c3ccc(N4CCC(CN5CCC(n6nc(N7CCCc8cc(-c9cnn(C)c9)c(C(F)F)cc87)c7c6CCN(C(C)=O)C7)CC5)C(C)C4)cc3)C2(C)C)ccc1C#N (centres unmarked) [Compound 263, 4-[4-[[4-[5-acetyl-3-[7-(difluoromethyl)-6-(1-methylpyrazol-4-yl)-3,4-dihydro-2H-quinolin-1-yl]-6,7-dihydro-4H-pyrazolo[4,3-c]pyridin-1-yl]-1-piperidyl]methyl]-3-methyl-1-piperidyl]-N-[3-(4-cyano-3-methoxy-phenoxy)-2,2,4,4-tetramethyl-cyclobutyl]benzamide]	> 1000	–	–
≤ 0.1	< 1	CC(=O)N1CCc2c(c(N3CCCc4cc(-c5cnn(C)c5)c(C(F)F)cc43)nn2C2CCN(CC3C(C)CN(c4ncc(C(=O)NC5C(C)(C)C(Oc6ccc(C#N)c(Cl)c6)C5(C)C)cn4)CC3C)CC2)C1 (centres unmarked) [Compound 350, 2-[4-[[4-[5-acetyl-3-[7-(difluoromethyl)-6-(1-methylpyrazol-4-yl)-3,4-dihydro-2H-quinolin-1-yl]-6,7-dihydro-4H-pyrazolo[4,3-c]pyridin-1-yl]-1-piperidyl]methyl]-3,5-dimethyl-1-piperidyl]-N-[3-(3-chloro-4-cyano-phenoxy)-2,2,4,4-tetramethyl-cyclobutyl]pyrimidine-5-carboxamide]	> 1000	–	–
